Activity calls are given as the source filed them.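 How the source made its calls: active means cell-killing curve crosses a set limit at a concentration no more than twice the top valid dose; inconclusive means flat curve with a 30 to 70% loss, or a poor fit; inactive means signal rising instead of falling, and the rest.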
Test: TC71 Ewing sarcoma cell killing, confirmation, luminescence, cherry-picked samples, retest (AID 720570)
Conditions: TC71 Ewing sarcoma viability, CellTiter-Glo ATP, 72 h; at 26 µM (top of the series)

| Structure (SMILES) | activity change, negative = cytotoxicity |
| --- | --- |
| Cc1ccc(NC(=O)COC(=O)c2ccc3c(c2)OCO3)cc1S(=O)(=O)N1CCCCC1 | 10.2% (inactive) |
| COc1ccc(Nc2ncnc3ccc(Br)cc23)c(OC)c1 | 6.89% (inactive) |
| CCn1c(C)cc(C(=O)CN2C(=O)c3ccccc3S2(=O)=O)c1C | 9.04% (inactive) |
| CC(C)c1ccccc1NC(=O)COC(=O)CCN1C(=O)/C(=C\C=C\c2ccccc2)SC1=S | 19.1% (inactive) |
| CCc1ccc(/C=C2\SC(=S)N(CCCC(=O)Nc3cc(C)on3)C2=O)cc1 | 20.2% (inactive) |
| COc1ccc(/C=C2\SC(=O)N(CCCC(=O)Nc3cc(Cl)ccc3C(=O)O)C2=O)cc1 | 5.69% (inactive) |
| Cc1cc(Br)ccc1N=C1C(=O)Nc2ccccc21 | 6.85% (inactive) |
| CCN1CCN(/C=N/c2nc3c(s2)CCCC3)CC1 | -11.1% (inactive) |
| COc1ccc(N=C2C(=O)Nc3ccc(C)c(Br)c32)cc1 | 5.89% (inactive) |
| COc1ccc(/C=C2\SC(=S)N(CCCC(=O)Nc3ccc(O)cc3)C2=O)cc1 | 0.096% (inactive) |
| COc1ccc(/C=C2\SC(=S)N(CCCC(=O)NNC(=O)c3ccccc3O)C2=O)cc1 | -6.8% (inactive) |
| O=C(/C=C/c1ccc(Cl)cc1Cl)N(Cc1ccc(Cl)cc1)C1CCS(=O)(=O)C1 (stereo not given) | 11.6% (inactive) |
| CCN(CC)C(=O)CN1C(=O)C(=O)c2ccccc21 | 6.39% (inactive) |
| N#C[C@H]1[C@H](c2ccc(C#Cc3ccccc3F)cc2)[C@@H](CO)N1C(=O)C1CCOCC1 | -12.8% (inactive) |
| O=C1NC(=O)N(CCc2ccc(F)cc2)C(=O)/C1=C/C=C/c1ccccc1 | 11.3% (inactive) |
| c1cncc(-c2ccc([C@@H]3[C@H]4CNC[C@@H]3N4CC3CCOCC3)cc2)c1 | 5.7% (inactive) |
| O=c1c2ccccc2oc2cc(C#CC3(O)CCCCC3)ccc12 | -17.6% (inactive) |
| O=C1C(=O)N(CCS(=O)(=O)c2ccccc2)c2ccc(Cl)cc21 | 20.1% (inactive) |
| O=C(Nc1cccc(Oc2ccc3c(c2)C(=O)NC3=O)c1)c1cccs1 | 9.53% (inactive) |
| O=C(Nc1ccc(OC(=O)N2CCCCC2)cc1)N1CCOCC1 | 2.31% (inactive) |

| Structure (SMILES) | activity change, negative = cytotoxicity |
| --- | --- |
| O=C1Nc2ccccc2C1=Nc1ccc(Br)cc1 | -5.59% (inactive) |
| O=C(Nc1nc(-c2ccc(F)c(F)c2)cs1)c1ccc(OCC2CCCO2)cc1 (stereo not given) | 1.49% (inactive) |
| CCCCNC(=O)C(c1ccc(OCC(=O)OC)c(C(=O)OC)c1)N(CCOC)C(=O)CCCCCN1C(=O)NC(c2ccc(-c3ccccc3)cc2)C(C(=O)OCc2ccccc2)=C1C (stereo not given) | 19.3% (inactive) |
| COc1ccc(NC(=O)c2cc3ccccc3oc2=O)cc1 | 7.98% (inactive) |
| O=C(CN1C(=O)c2ccccc2S1(=O)=O)c1ccc(F)cc1 | 12.8% (inactive) |
| COc1ccc(-c2sc3ccccc3c2-c2ccc(OCCN3CCCCC3)cc2)cc1 | 12.2% (inactive) |
| Cc1ccc(-c2ccc3c(c2)O[C@@H](CN(C)C(=O)Nc2ccc(F)cc2)[C@H](C)CN([C@@H](C)CO)S3(=O)=O)cc1 | -12.5% (inactive) |
| COc1ccc(N=C(NN)c2ccc3ccccc3n2)cc1 | 4.27% (inactive) |
| C=CCOc1ccccc1C(=O)/C=C1/C(=O)Nc2ccccc21 | -30.1% (inactive) |
| COc1ccc(/C=N/Nc2ccc(C(=O)O)cc2)cc1Br | -12.7% (inactive) |
| CCOc1ccc(-c2cc(CCCC(=O)N3CCN(c4ccc(OC)cc4)CC3)no2)cc1 | -1.53% (inactive) |
| O=C(O)c1ccc(N/N=C/c2c[nH]c3ccccc23)cc1 | 19.2% (inactive) |
| COc1ccc(/C=C2/SC(=S)N(CCCC(=O)Nc3ccccc3C(=O)O)C2=O)cc1 | 15% (inactive) |
| CC(Oc1cccc(Cl)c1)C(=O)NCCCCc1ccccc1 (stereo not given) | 13.3% (inactive) |
| COc1ccc2oc(C(=O)NCCc3ccccc3)c(C)c2c1 | 3.92% (inactive) |
| COc1ccc(CNc2ncc(-c3ccc(F)cc3)n2C)c2ccccc12 | -1.83% (inactive) |
| COC(=O)c1cccc(NC(=O)NC(=O)c2ccccc2Cl)c1 | 7.25% (inactive) |
| CO[C@H]1CN(C)C(=O)c2cc(NC(=O)c3ccc(Oc4ccccc4)cc3)ccc2OC[C@H](C)NC[C@@H]1C | -22.7% (inactive) |
| COc1cc(/C=N/NS(=O)(=O)c2ccc(C)cc2)ccc1OCc1cccc(C(=O)O)c1 | -3.76% (inactive) |
| COc1ccccc1NS(=O)(=O)c1cc(NC(=O)c2cc3ccccc3oc2=O)ccc1C | 1.31% (inactive) |

— PubChem BioAssay AID720570 (Broad Institute, 2013)
